The record followed here is US9211349B2, “Molecular probes for multimodality imaging of anionic membrane surfaces” (Molecular Targeting Technologies, Inc., priority 2012, dated 2015).

By IC50 is commonly meant the concentration that gives 50% inhibition. The low end stands for greater potency in that assay, the high end for weaker potency in that assay.

The experiment concerns U87MG cells. In words: MTT assay, cytotoxicity of paclitaxel on U87MG cells. It counts as cell-based, human. The procedure:
A U87MG human glioblastoma cell line was obtained from the American Type Culture Collection (Manassas, Va., USA). U87MG glioma cells were grown in Dulbecco's modified medium (USC Cell Culture Core, Los Angeles, Calif., USA) supplemented with 10% fetal bovine serum at 37° C. in humidified atmosphere containing 5% CO2.
The toxicity of paclitaxel to U87MG cells was determined by a colorimetric assay with 3-(4,5-dimethylthiazol-2-yl)-2,5-diphenyl tetrazolium bromide (MTT; Alfa Aesar). All studies were performed with triplicate samples and repeated at least three times. Briefly, cells were harvested by trypsinization, resuspended in Dulbecco's modified medium, and plated in a 96-well plate at 4,000 cells per well. After treatment with different doses of paclitaxel (ranging from 1 nM to 500 nM) for 16 hours, 22 μL of 0.5 mg/mL sterile filtered MTT was added to each well. The un-reacted dye was removed after 4 hours of incubation, and the insoluble formazan crystals were dissolved in 150 μL of DMSO. The absorbance at 490 nm was measured with a microplate reader (SpectraMax M2e, Molecular Devices, CA).
FIG. 3 is a graph illustrating cytotoxicity of paclitaxel on U87MG cells determined by MTT assay. The best-fit 50% inhibitory concentration (IC50) values were calculated by fitting the data with nonlinear regression using Graph-Pad Prism 5.0 (Graph-Pad Software, San Diego, Calif.).
(Tetrazolium assays rely on reduction of a dye to a coloured formazan, in cell work by metabolically active cells.)

Molecules are shown by their SMILES.

`CC(=O)O[C@H]1C(=O)[C@@]2(C)[C@H]([C@H](OC(=O)c3ccccc3)[C@]3(O)C[C@H](OC(=O)[C@H](O)[C@@H](NC(=O)c4ccccc4)c4ccccc4)C(C)=C1C3(C)C)[C@]1(OC(C)=O)CO[C@@H]1C[C@@H]2O` [paclitaxel]: where the note is “1 nM to 500 nM, 16 hours”, the “sensitivity of U87MG cells to treatment” value is recorded as “sensitive”. The same molecule yielded an IC50 (Homo sapiens, U-87 MG, after 16 hours of incubation) of 61.4 nM.
